Article PMC2723721 (Bioorganic & medicinal chemistry, 2009)

Molecular target: p47phox (Homo sapiens, UniProt P14598)
Test: ELISA: his-p47phox binding to immobilized biotin-p22phox peptide with […] IAA
Assay type: biochemical

p47phox, sequence (P13498 2-195): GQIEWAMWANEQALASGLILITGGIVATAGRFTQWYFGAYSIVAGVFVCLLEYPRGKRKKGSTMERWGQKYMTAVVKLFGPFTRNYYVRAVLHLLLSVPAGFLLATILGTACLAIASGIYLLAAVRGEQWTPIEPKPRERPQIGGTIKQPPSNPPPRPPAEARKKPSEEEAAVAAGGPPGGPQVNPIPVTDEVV
p47phox, sequence (P14598 whole entry): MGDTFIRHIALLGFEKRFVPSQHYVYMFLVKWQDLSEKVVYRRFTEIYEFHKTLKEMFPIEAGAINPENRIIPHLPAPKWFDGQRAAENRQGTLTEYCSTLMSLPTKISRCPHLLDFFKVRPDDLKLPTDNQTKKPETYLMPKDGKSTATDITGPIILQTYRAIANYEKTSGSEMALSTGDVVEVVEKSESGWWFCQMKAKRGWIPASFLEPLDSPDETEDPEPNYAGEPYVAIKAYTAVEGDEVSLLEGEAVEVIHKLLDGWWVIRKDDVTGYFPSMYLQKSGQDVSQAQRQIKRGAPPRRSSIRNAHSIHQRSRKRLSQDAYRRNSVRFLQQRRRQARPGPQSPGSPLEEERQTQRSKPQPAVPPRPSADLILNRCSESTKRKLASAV

## NC(=O)CI [IAA, iodoacetamide]
  % drop in bound p47phox at 1 μM: > 50 % drop in bound p47phox at 1 μM
